Assay results published in PMC2907470 (Nature chemical biology, 2010).

Assays:
[1] = target: T1, Scn-Ngal (Homo sapiens, UniProt P80188); assay: Release of ligands from Scn-Ngal on acidification; type: binding; conditions: acidification from neutral pH; n = 3
[2] = target: T1, Scn-Ngal; type: binding; conditions: for iron retention by Scn-Ngal, dose-response: urinary compounds 0.5–100 µM, Scn-Ngal 10 µM
[3] = tested on: C57BL/6 mice; type: in vivo, mouse; conditions: for cleared in the urine: by 180 min after introduction; for organ distribution: i.p., 20 and 180 min
[4] = Stability of catechol in solution monitored by NMR; conditions: monitored for 20 hrs by NMR, D2O
[5] = target: T1, Scn-Ngal; assay: Fluorescence quenching analysis of Scn-Ngal with free catechol ligands; type: binding; conditions: with iron III versus catechol itself
[6] = target: Scn-Ngal K125A, K134A mutant (Homo sapiens, UniProt P80188, K145A/K154A); assay: 55Fe retention by Scn-Ngal K125A, K134A mutant; type: binding; conditions: K125 and K134 mutated to alanine, versus wild type
[7] = tested on: embryonic kidney FoxD1+ stromal cells; assay: Capture of 55Fe from Scn-Ngal:catechol:55Fe by kidney stromal cells; type: cell-based, mouse; conditions: 37°C, bafilomycin 0.15 nmole, 3 hrs
[8] = tested on: LLCPK cells; assay: Iron responsive 5'IRE-YFP reporter in LLCPK cells; type: cell-based; conditions: 100 or 500 µg/ml, 16 hrs, compared to DMEM alone
[9] = tested on: kidney proximal tubule LLCPK1 cells; assay: Capture of 55Fe from Scn-Ngal:catechol:55Fe by LLCPK cells; type: cell-based; conditions: 37°C
[10] = Generation of hydroxyl radicals; type: biochemical; conditions: 10 µM FeCl3, 30 µM catechols, 2 mM H2O2; Scn-Ngal 10 µM where added

Sequence of Scn-Ngal K125A, K134A mutant (P80188 21-198 K145A/K154A): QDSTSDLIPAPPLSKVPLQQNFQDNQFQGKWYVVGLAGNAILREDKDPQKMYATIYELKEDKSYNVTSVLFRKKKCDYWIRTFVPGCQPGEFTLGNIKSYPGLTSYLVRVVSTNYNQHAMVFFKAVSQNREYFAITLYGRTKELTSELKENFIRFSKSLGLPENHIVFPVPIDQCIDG

Molecule: Cc1cccc(O)c1O [3-methylcatechol, 3-methylbenzene-1,2-diol]
- pH at which Scn-Ngal:ligand:FeIII complex dissociated [1]: 6.0
- iron retention by Scn-Ngal, dose-response [2]: saturable iron retention

Molecule: Cc1ccc(O)c(O)c1 [4-methylcatechol, 4-methylbenzene-1,2-diol]
- iron retention by Scn-Ngal, dose-response [2]: saturable iron retention

Molecule: Oc1ccccc1O [Catechol, benzene-1,2-diol]
- cleared in the urine [3]: 80.56±8.8%
- pH at which Scn-Ngal:ligand:FeIII complex dissociated [1]: 6.0
- stability in solution [4]: stable in solution
- increase in binding affinity in the presence of iron III [5]: 100 fold
- iron retention by Scn-Ngal, dose-response [2]: saturable iron retention

Molecule: O=C(N[C@H]1COC(=O)[C@@H](NC(=O)c2cccc(O)c2O)COC(=O)[C@@H](NC(=O)c2cccc(O)c2O)COC1=O)c1cccc(O)c1O [Ent, reference compound]
- association of urinary catechols with Scn-Ngal in presence of competitor ([2]; 50 fold molar excess of Ent presaturated with non-radioactive iron): blocked

Molecule: O=C(N[C@H]1COC(=O)[C@@H](NC(=O)c2cccc([O-])c2[O-])COC(=O)[C@@H](NC(=O)c2cccc([O-])c2[O-])COC1=O)c1cccc([O-])c1[O-].[Fe+3] [Ent:Fe]
- capture of siderophore:Fe by mutant Scn-Ngal [6]: ineffective

Molecule: Oc1cccc(O)c1O [Pyrogallol, benzene-1,2,3-triol]
- pH at which Scn-Ngal:ligand:FeIII complex dissociated [1]: < 4
- iron retention by Scn-Ngal, dose-response [2]: saturable iron retention

Molecule: bafilomycin [reference compound]
- 55Fe uptake [7]: inhibited

Molecule: transferrin:iron: iron-loaded transferrin, comparator [reference compound]
- organ distribution [3]: accumulated in the bone marrow

B1: Scn-Ngal:catechol:Fe: complex of the lipocalin Scn-Ngal with catechol and iron (protein, UniProt P80188 21-198, looked up)
Neutrophil …: QDSTSDLIPAPPLSKVPLQQNFQDNQFQGKWYVVGLAGNAILREDKDPQKMYATIYELKEDKSYNVTSVLFRKKKCDYWIRTFVPGCQPGEFTLGNIKSYPGLTSYLVRVVSTNYNQHAMVFFKKVSQNREYFKITLYGRTKELTSELKENFIRFSKSLGLPENHIVFPVPIDQCIDG
modifications: complex with catechol and iron
- cleared in the urine [3]: 56.4±6.7%
- organ distribution [3]: targeted the kidney
- 55Fe uptake [7]: Uptake occurred
- iron dependent YFP probe [8]: activated
- 55Fe uptake [9]: Uptake occurred

B2: Scn-Ngal: Neutrophil Gelatinase Associated Lipocalin, recombinant, expressed in BL-21 bacteria (protein, UniProt P80188 21-198, looked up)
Neutrophil …: QDSTSDLIPAPPLSKVPLQQNFQDNQFQGKWYVVGLAGNAILREDKDPQKMYATIYELKEDKSYNVTSVLFRKKKCDYWIRTFVPGCQPGEFTLGNIKSYPGLTSYLVRVVSTNYNQHAMVFFKKVSQNREYFKITLYGRTKELTSELKENFIRFSKSLGLPENHIVFPVPIDQCIDG
- conversion of HPF to fluorescein (hydroxyl radical formation) [10]: blocked the reaction
